Test results taken from patent publication US11780832B2, “Lactivicin compounds, their preparation and use as antibacterial agents” (priority 2021, dated 2023).
Values after ≈ are worked out from the molar mass of the structure shown.

Assays:
Format in all cases: cell-based
[1] = system: Acinetobacter baumannii ATCC 19606; assay: MIC, CLSI broth microdilution; conditions: ATCC19606
In short: (§1)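 CLSI broth microdilution; 2-fold compound series, final 16-0.0125 μg/mL; final inoculum 5×10^5 CFU/mL. Strains genotyped for resistance markers, passaged twice from frozen stock before testing.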

[2] = system: Enterobacter cloacae species complex NDM-1; assay: MIC, CLSI broth microdilution
In short: as §1

Escherichia coli CMY-2 = assay: MIC, CLSI broth microdilution; conditions: CMY2
In short: as §1

[3] = system: Escherichia coli Empty pSMART plasmid; assay: MIC, CLSI broth microdilution
In short: as §1

[4] = system: Escherichia coli Isogenic TEM-10; assay: MIC, CLSI broth microdilution
In short: (§2)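 Inhibitory concentrations were measured in broth following CLSI microdilution rules. Test organisms, each with known resistance determinants, were inoculated at a final 5×10^5 CFU/mL into wells holding compound at final concentrations from 16 down to 0.0125 μg/mL.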

[5] = system: Escherichia coli Isogenic TEM-26; assay: MIC, CLSI broth microdilution
In short: as §2

Escherichia coli SHV-12 = assay: MIC, CLSI broth microdilution; conditions: SHV12
In short: as §1

Escherichia coli CMY-DHA = assay: MIC against CMY-DHA producing strains, compound alone
Protocol: (§3) Gram-negative and Gram-positive bacterial strains used during the in vitro minimum inhibitory concentration (MIC) determination were obtained either from the American Type Culture Collection (ATCC) or from clinical specimens. All strains were characterized genotypically and the respective antibiotic resistance markers for each strain were identified.
(§4) Isolates were sub-cultured onto appropriate media and stocked in skim milk at −80° C. Following two subcultures from frozen stock, in vitro antimicrobial susceptibility testing was performed using the Clinical and Laboratory Standards Institute (CLSI) broth microdilution method. Briefly, fresh cultures were suspended in culture media to give a final stock inoculum size of 5×10^7 colony forming units per milliliter of broth (CFU/mL). Test compounds were prepared at a stock solution concentration equal to 128 μg/mL, then diluted to give a final an initial working concentration of 32 μg/mL. 100 μL of the stock solutions were added to the first wells in a 96-well plate and were then diluted using a 2-fold dilution method to give a range of 32-0.025 μg/mL. 100 μL of the bacterial suspensions were then added to the 96-well plates to give a final working inoculum size of 5×10^5 CFU/mL. The final compound concentration range was 16-0.0125 μg/mL. […] MICs for comparator agents were determined using custom-designed, in-house prepared 96-well broth microdilution panels.

[6] = system: Klebsiella pneumoniae CMY-DHA; assay: as above; conditions: row r32
Protocol: as §3, §4

[7] = system: Proteus mirabilis CMY-DHA; assay: as above; conditions: row r36
Protocol: as §3, §4

[8] = system: Escherichia coli pSMART_Ecloacae_AmpC; assay: MIC, CLSI broth microdilution
In short: as §2

Row | SMILES | MIC [1] [mg/L] | MIC [2] [mg/L] | MIC (Escherichia coli CMY-2) [mg/L] | MIC [3] [mg/L] | MIC [4] [mg/L] | MIC [5] [mg/L] | MIC (Escherichia coli SHV-12) [mg/L] | MIC (Escherichia coli CMY-DHA; strain of row r26) [mg/L] | MIC (Escherichia coli CMY-DHA; strain of row r27) [mg/L] | MIC (Escherichia coli CMY-DHA; strain of row r28) [mg/L] | MIC (Escherichia coli CMY-DHA; strain of row r29) [mg/L] | MIC (Escherichia coli CMY-DHA; strain of row r30) [mg/L] | MIC (Escherichia coli CMY-DHA; strain of row r31) [mg/L] | MIC (Escherichia coli CMY-DHA; strain of row r34) [mg/L] | MIC (Escherichia coli CMY-DHA; strain of row r35) [mg/L] | MIC [6] [mg/L] | MIC [7] [mg/L] | MIC [8] [mg/L]
1 | CC(C)(O/N=C(\C(=O)N[C@@H]1C(=O)N2C(C(=O)[O-])=C(C[n+]3ccccc3)CS[C@H]12)c1csc(N)n1)C(=O)O [Ceftazidime, ceftazidime, reference compound] | 8 (≈ 14.6 µM) | > 32 | > 32 | 0.25 (≈ 0.457 µM) | > 32 | > 32 | 32 (≈ 58.5 µM) | 32 (≈ 58.5 µM) | 32 (≈ 58.5 µM) | 8 (≈ 14.6 µM) | 32 (≈ 58.5 µM) | 4 (≈ 7.32 µM) | 32 (≈ 58.5 µM) | > 32 | > 32 | 16 (≈ 29.3 µM) | 16 (≈ 29.3 µM) | –
2 | Nc1nc(/C(=N/OC2(C(=O)O)CCC(F)(F)CC2)C(=O)N[C@H]2CON(C3(C(=O)O)C[C@H](N4C(=O)c5cc(O)c(O)cc5C4=O)C(=O)O3)C2=O)cs1 (stereo partly drawn) [Cmpd 10, (4S)-2-[(4S)-4-{[(2Z)-2-(2-amino-1,3-thiazol-4-yl)-2-{[(1-carboxy-4,4-difluorocyclohexyl)oxy]imino}acetyl]amino}-3-oxo-1,2-oxazolidin-2-yl]-4-(5,6-dihydroxy-1,3-dioxo-1,3-dihydro-2H-isoindol-2-yl)-5-oxooxolane-2-carboxylic acid] | 0.12 (≈ 0.162 µM) | 2 (≈ 2.71 µM) | 1 (≈ 1.35 µM) | ≤ 0.015 | – | – | 2 (≈ 2.71 µM) | 0.5 (≈ 0.677 µM) | 0.03 (≈ 0.0406 µM) | 0.25 (≈ 0.338 µM) | 0.5 (≈ 0.677 µM) | 0.25 (≈ 0.338 µM) | 1 (≈ 1.35 µM) | 0.06 (≈ 0.0812 µM) | 0.12 (≈ 0.162 µM) | 0.5 (≈ 0.677 µM) | 0.12 (≈ 0.162 µM) | –
3 | Nc1nc(/C(=N/OC2(C(=O)O)CC2)C(=O)N[C@H]2CON(C3(C(=O)O)C[C@H](N4Cc5cc(O)c(O)cc5C4=O)C(=O)O3)C2=O)cs1 (stereo partly drawn) [Cmpd 28, (4S)-2-[(4S)-4-{[(2Z)-2-(2-amino-1,3-thiazol-4-yl)-2-{[(1-carboxycyclopropyl)oxy]imino}acetyl]amino}-3-oxo-1,2-oxazolidin-2-yl]-4-(5,6-dihydroxy-1-oxo-1,3-dihydro-2H-isoindol-2-yl)-5-oxooxolane-2-carboxylic acid] | 0.12 (≈ 0.186 µM) | 2 (≈ 3.09 µM) | 8 (≈ 12.4 µM) | – | 0.03 (≈ 0.0464 µM) | 0.03 (≈ 0.0464 µM) | 0.5 (≈ 0.773 µM) | 4 (≈ 6.19 µM) | 0.25 (≈ 0.387 µM) | 0.5 (≈ 0.773 µM) | 4 (≈ 6.19 µM) | 1 (≈ 1.55 µM) | 8 (≈ 12.4 µM) | 1 (≈ 1.55 µM) | 2 (≈ 3.09 µM) | 2 (≈ 3.09 µM) | 2 (≈ 3.09 µM) | –
4 | Nc1nc(/C(=N/OC2(C(=O)O)CCOCC2)C(=O)N[C@H]2CON(C3(C(=O)O)C[C@H](N4C(=O)c5cc(O)c(O)cc5C4=O)C(=O)O3)C2=O)cs1 (stereo partly drawn) [Cmpd 8, 4-({(Z)-[1-(2-amino-1,3-thiazol-4-yl)-2-({(4S)-2-[(4S)-2-carboxy-4-(5,6-dihydroxy-1,3-dioxo-1,3-dihydro-2H-isoindol-2-yl)-5-oxooxolan-2-yl]-3-oxo-1,2-oxazolidin-4-yl}amino)-2-oxoethylidene]amino}oxy)oxane-4-carboxylic acid] | 0.12 (≈ 0.17 µM) | 0.25 (≈ 0.355 µM) | 1 (≈ 1.42 µM) | – | 0.0149 (≈ 0.0211 µM) | 0.0149 (≈ 0.0211 µM) | 1 (≈ 1.42 µM) | 1 (≈ 1.42 µM) | 0.06 (≈ 0.0852 µM) | 0.25 (≈ 0.355 µM) | 0.5 (≈ 0.71 µM) | 0.25 (≈ 0.355 µM) | 1 (≈ 1.42 µM) | 0.12 (≈ 0.17 µM) | 0.25 (≈ 0.355 µM) | 1 (≈ 1.42 µM) | 4 (≈ 5.68 µM) | –
5 | Nc1nc(/C(=N/OC2(C(=O)O)CCOCC2)C(=O)N[C@H]2CON(C3(C(=O)O)C[C@H](N4C(=O)c5cc(O)c(O)nc5C4=O)C(=O)O3)C2=O)cs1 (stereo partly drawn) [Cmpd 26, 4-({(Z)-[1-(2-amino-1,3-thiazol-4-yl)-2-({(4S)-2-[(4S)-2-carboxy-4-(2,3-dihydroxy-5,7-dioxo-5,7-dihydro-6H-pyrrolo[3,4-b]pyridin-6-yl)-5-oxooxolan-2-yl]-3-oxo-1,2-oxazolidin-4-yl}amino)-2-oxoethylidene]amino}oxy)oxane-4-carboxylic acid] | 1 (≈ 1.42 µM) | 2 (≈ 2.83 µM) | 4 (≈ 5.67 µM) | – | 0.03 (≈ 0.0425 µM) | – | 4 (≈ 5.67 µM) | 2 (≈ 2.83 µM) | 0.25 (≈ 0.354 µM) | 1 (≈ 1.42 µM) | 2 (≈ 2.83 µM) | 1 (≈ 1.42 µM) | 8 (≈ 11.3 µM) | 1 (≈ 1.42 µM) | 1 (≈ 1.42 µM) | 4 (≈ 5.67 µM) | 4 (≈ 5.67 µM) | –
6 | Nc1nc(/C(=N/OC2(C(=O)O)CC2)C(=O)N[C@H]2CON(C3(C(=O)O)C[C@H](N4C(=O)c5cc(O)c(O)cc5C4=O)C(=O)O3)C2=O)cs1 (stereo partly drawn) [Cmpd 1, (4S)-2-[(4S)-4-{[(2Z)-2-(2-amino-1,3-thiazol-4-yl)-2-{[(1-carboxycyclopropyl)oxy]imino}acetyl]amino}-3-oxo-1,2-oxazolidin-2-yl]-4-(5,6-dihydroxy-1,3-dioxo-1,3-dihydro-2H-isoindol-2-yl)-5-oxooxolane-2-carboxylic acid] | 0.03 (≈ 0.0454 µM) | 0.12 (≈ 0.182 µM) | 1 (≈ 1.51 µM) | – | 0.0149 (≈ 0.0226 µM) | 0.0149 (≈ 0.0226 µM) | 0.5 (≈ 0.757 µM) | 1 (≈ 1.51 µM) | 0.06 (≈ 0.0908 µM) | 0.25 (≈ 0.378 µM) | 0.5 (≈ 0.757 µM) | 0.5 (≈ 0.757 µM) | 2 (≈ 3.03 µM) | 0.25 (≈ 0.378 µM) | 0.25 (≈ 0.378 µM) | 1 (≈ 1.51 µM) | 2 (≈ 3.03 µM) | 0.03 (≈ 0.0454 µM)
7 | Nc1nc(/C(=N/OC2(C(=O)O)CC2)C(=O)N[C@H]2CON(C3(C(=O)O)C[C@H](N4C(=O)c5cc(O)c(O)cc5C4=O)C(=O)O3)C2=O)ns1 (stereo partly drawn) [Cmpd 18, (4S)-2-[(4S)-4-{[(2Z)-2-(5-amino-1,2,4-thiadiazol-3-yl)-2-{[(1-carboxycyclopropyl)oxy]imino}acetyl]amino}-3-oxo-1,2-oxazolidin-2-yl]-4-(5,6-dihydroxy-1,3-dioxo-1,3-dihydro-2H-isoindol-2-yl)-5-oxooxolane-2-carboxylic acid] | 0.25 (≈ 0.378 µM) | 0.5 (≈ 0.756 µM) | 2 (≈ 3.02 µM) | 0.0149 (≈ 0.0225 µM) | – | – | 1 (≈ 1.51 µM) | 0.5 (≈ 0.756 µM) | 0.12 (≈ 0.181 µM) | 0.25 (≈ 0.378 µM) | 1 (≈ 1.51 µM) | 0.5 (≈ 0.756 µM) | 2 (≈ 3.02 µM) | 0.5 (≈ 0.756 µM) | 0.5 (≈ 0.756 µM) | 1 (≈ 1.51 µM) | 1 (≈ 1.51 µM) | –
